We go through 14 compounds from ChEMBL document CHEMBL3046966, “Structure and Fungicidal Activities of 2-Methoxyimino-N-methyl-2-[2-(substituted pyridyloxymethyl)phenyl]acetamide Derivatives” (1998).

Holding throughout (type): functional
For assay [1], the system named is Podosphaera fuliginea. Briefly: Fungicidal activity against Podosphaera fuligineas assessed as cucumber […] mildew disease control at 7.8 ppm foliar application 24 hr before inoculation by preventive manner.
For assay [2], the system named is Pyricularia oryzae. Briefly: Fungicidal activity against Magnaporthe oryzae assessed as rice blast disease control at 125 ppm foliar application for 24 hr after inoculation by curative manner.
Assay [3] deals with Pyricularia oryzae. Briefly: Fungicidal activity against Magnaporthe oryzae assessed as rice blast disease control at 125 ppm foliar application for 24 hr before inoculation by preventive manner.
Assay [4] concerns Botrytis cinerea. Briefly: Fungicidal activity against Botryotinia fuckeliana assessed as cucumber gray mold disease control at 125 ppm foliar application 24 hr after inoculation by curative manner.
In assay [5] the test system is Pseudoperonospora cubensis. Briefly: Fungicidal activity against Pseudoperonospora cubensis assessed as cucumber downy mildew disease control at 125 ppm foliar application 24 hr after inoculation by preventive manner.
In assay [6] the test system is Blumeria graminis f. sp. tritici. The experiment in a line: Fungicidal activity against Blumeria graminis f. sp. tritici assessed as wheat powdery mildew disease control at 125 ppm foliar application for 24 hr after inoculation by curative manner.
In assay [7] the test system is Podosphaera fuliginea. Briefly: Fungicidal activity against Podosphaera fuligineas assessed as cucumber […] mildew disease control at 7.8 ppm foliar application 24 hr after inoculation by curative manner.
For assay [8], the system named is Pseudoperonospora cubensis. The experiment in a line: Fungicidal activity against Pseudoperonospora cubensis assessed as cucumber downy mildew disease control at 31.3 ppm foliar application 24 hr after inoculation by curative manner.
In assay [9] the test system is Blumeria graminis f. sp. tritici. The experiment in a line: Fungicidal activity against Blumeria graminis f. sp. tritici assessed as wheat powdery mildew disease control at 31.3 ppm foliar application for 24 hr before inoculation by preventive manner.
Assay [10] deals with Botrytis cinerea. Briefly: Fungicidal activity against Botryotinia fuckeliana assessed as cucumber gray mold disease control at 125 ppm foliar application 24 hr before inoculation by preventive manner.
Assay [11] has as its system Botrytis cinerea. Briefly: Fungicidal activity against Botryotinia fuckeliana assessed as cucumber gray mold disease control at 31.3 ppm foliar application 24 hr after inoculation by curative manner.
Assay [12] relates to Botrytis cinerea. Briefly: Fungicidal activity against Botryotinia fuckeliana assessed as cucumber gray mold disease control at 31.3 ppm foliar application 24 hr before inoculation by preventive manner.
Assay [13] has as its system Blumeria graminis f. sp. tritici. The experiment in a line: Fungicidal activity against Blumeria graminis f. sp. tritici assessed as wheat powdery mildew disease control at 31.3 ppm foliar application for 24 hr after inoculation by curative manner.
Assay [14] has the same test system. The experiment in a line: Fungicidal activity against Blumeria graminis f. sp. tritici assessed as wheat powdery mildew disease control at 7.8 ppm foliar application for 24 hr before inoculation by preventive manner.
Assay [15] relates to Podosphaera fuliginea. Briefly: Fungicidal activity against Podosphaera fuligineas assessed as cucumber […] mildew disease control at 31.3 ppm foliar application 24 hr after inoculation by curative manner.
The test system of assay [16] is Blumeria graminis f. sp. tritici. The experiment in a line: Fungicidal activity against Blumeria graminis f. sp. tritici assessed as wheat powdery mildew disease control at 2 ppm foliar application for 24 hr before inoculation by preventive manner.
Assay [17] concerns Podosphaera fuliginea. Briefly: Fungicidal activity against Podosphaera fuligineas assessed as cucumber […] mildew disease control at 2 ppm foliar application 24 hr after inoculation by curative manner.
The test system of assay [18] is Blumeria graminis f. sp. tritici. The experiment in a line: Fungicidal activity against Blumeria graminis f. sp. tritici assessed as wheat powdery mildew disease control at 2 ppm foliar application for 24 hr after inoculation by curative manner.
In assay [19] the test system is Pseudoperonospora cubensis. The experiment in a line: Fungicidal activity against Pseudoperonospora cubensis assessed as cucumber downy mildew disease control at 31.3 ppm foliar application 24 hr after inoculation by preventive manner.
Assay [20] concerns Pyricularia oryzae. Briefly: Fungicidal activity against Magnaporthe oryzae assessed as rice blast disease control at 2 ppm foliar application for 24 hr before inoculation by preventive manner.
Assay [21] concerns Botrytis cinerea. The experiment in a line: Fungicidal activity against Botryotinia fuckeliana assessed as cucumber gray mold disease control at 2 ppm foliar application 24 hr after inoculation by curative manner.
The test system of assay [22] is Botrytis cinerea. Briefly: Fungicidal activity against Botryotinia fuckeliana assessed as cucumber gray mold disease control at 7.8 ppm foliar application 24 hr before inoculation by preventive manner.
For assay [23], the system named is Pyricularia oryzae. Briefly: Fungicidal activity against Magnaporthe oryzae assessed as rice blast disease control at 2 ppm foliar application for 24 hr after inoculation by curative manner.
Assay [24] deals with Pseudoperonospora cubensis. The experiment in a line: Fungicidal activity against Pseudoperonospora cubensis assessed as cucumber downy mildew disease control at 2 ppm foliar application 24 hr after inoculation by curative manner.
Assay [25] deals with Podosphaera fuliginea. The experiment in a line: Fungicidal activity against Podosphaera fuligineas assessed as cucumber […] mildew disease control at 2 ppm foliar application 24 hr before inoculation by preventive manner.
Assay [26] concerns Botrytis cinerea. The experiment in a line: Fungicidal activity against Botryotinia fuckeliana assessed as cucumber gray mold disease control at 2 ppm foliar application 24 hr before inoculation by preventive manner.
For assay [27], the system named is Pyricularia oryzae. The experiment in a line: Fungicidal activity against Magnaporthe oryzae assessed as rice blast disease control at 7.8 ppm foliar application for 24 hr after inoculation by curative manner.
Assay [28] relates to Pyricularia oryzae. Briefly: Fungicidal activity against Magnaporthe oryzae assessed as rice blast disease control at 7.8 ppm foliar application for 24 hr before inoculation by preventive manner.
Assay [29] concerns Pseudoperonospora cubensis. Briefly: Fungicidal activity against Pseudoperonospora cubensis assessed as cucumber downy mildew disease control at 7.8 ppm foliar application 24 hr after inoculation by preventive manner.
The test system of assay [30] is Pyricularia oryzae. Briefly: Fungicidal activity against Magnaporthe oryzae assessed as rice blast disease control at 31.3 ppm foliar application for 24 hr after inoculation by curative manner.
Assay [31] has as its system Blumeria graminis f. sp. tritici. Briefly: Fungicidal activity against Blumeria graminis f. sp. tritici assessed as wheat powdery mildew disease control at 7.8 ppm foliar application for 24 hr after inoculation by curative manner.
Assay [32] deals with Pseudoperonospora cubensis. The experiment in a line: Fungicidal activity against Pseudoperonospora cubensis assessed as cucumber downy mildew disease control at 2 ppm foliar application 24 hr before inoculation by preventive manner.
Assay [33] concerns Podosphaera fuliginea. The experiment in a line: Fungicidal activity against Podosphaera fuligineas assessed as cucumber […] mildew disease control at 31.3 ppm foliar application 24 hr before inoculation by preventive manner.
Assay [34] relates to Botrytis cinerea. The experiment in a line: Fungicidal activity against Botryotinia fuckeliana assessed as cucumber gray mold disease control at 7.8 ppm foliar application 24 hr after inoculation by curative manner.
Assay [35] has as its system Pyricularia oryzae. The experiment in a line: Fungicidal activity against Magnaporthe oryzae assessed as rice blast disease control at 31.3 ppm foliar application for 24 hr before inoculation by preventive manner.
Assay [36] deals with Blumeria graminis f. sp. tritici. Briefly: Fungicidal activity against Blumeria graminis f. sp. tritici assessed as wheat powdery mildew disease control at 125 ppm foliar application for 24 hr before inoculation by preventive manner.
Assay [37] deals with Podosphaera fuliginea. The experiment in a line: Fungicidal activity against Podosphaera fuligineas assessed as cucumber […] mildew disease control at 125 ppm foliar application 24 hr before inoculation by preventive manner.
Assay [38] deals with Pseudoperonospora cubensis. The experiment in a line: Fungicidal activity against Pseudoperonospora cubensis assessed as cucumber downy mildew disease control at 7.8 ppm foliar application 24 hr after inoculation by curative manner.

Molecules are shown by their SMILES.

Take `CNC(=O)/C(=N/OC)c1ccccc1COc1ccc(C(F)(F)F)c(OC(C)C)n1`: the Activity in the assay on Podosphaera fuliginea [1] is listed as 90%; with Pyricularia oryzae [2] it was 90%; in the assay on Pyricularia oryzae [3], 90%; in the assay with Botrytis cinerea [4], <90%; in assay [5] it was <90%; in [6], 90%. In addition, the Activity in the assay on Podosphaera fuliginea [7] was 90%; in [8], 90%; in assay [9], 90%; in the assay with Botrytis cinerea [10], <90%.
Turning to `CNC(=O)/C(=N/OC)c1ccccc1COc1ccccn1`, the Activity is recorded as 90% in the assay with Podosphaera fuliginea [1]; <90% in the assay with Pyricularia oryzae [2]; 90% in the assay on Botrytis cinerea [11]; <90% with Pyricularia oryzae [3]; 90% in assay [5]; 90% in assay [8]. The Activity (in the assay with Botrytis cinerea [12]; in [13]; in assay [14]; with Podosphaera fuliginea [15]) was 90% in each case.
Turning to `CNC(=O)/C(=N/OC)c1ccccc1COc1ncccc1C(F)(F)F`, the Activity (in assay [16]; in the assay on Podosphaera fuliginea [1]; in the assay on Podosphaera fuliginea [17]; in assay [18]; in [8]; in assay [19]) was 90% in each case. Moreover, the Activity in the assay on Pyricularia oryzae [20], with Botrytis cinerea [21], with Botrytis cinerea [22] and in the assay on Pyricularia oryzae [23] was 90% throughout.
On to `CNC(=O)/C(=N/OC)c1ccccc1COc1ncc(C(F)(F)F)cc1Cl`, for which the Activity (in assay [16]; in assay [24]; in the assay with Podosphaera fuliginea [25]; with Podosphaera fuliginea [17]; in the assay on Botrytis cinerea [26]; in the assay on Pyricularia oryzae [27]) was 90% in each case. In addition, the Activity (with Pyricularia oryzae [28]; in assay [29]; in assay [18]; in the assay with Botrytis cinerea [21]) was 90% throughout.
As to `CNC(=O)/C(=N/OC)c1ccccc1COc1ncc(Cl)cc1Cl`, the Activity (in assay [24]; in the assay on Podosphaera fuliginea [25]; in the assay on Podosphaera fuliginea [17]; in the assay with Botrytis cinerea [11]; in the assay on Pyricularia oryzae [30]; in the assay with Pyricularia oryzae [28]) was 90% each time. The Activity (with Botrytis cinerea [12]; in assay [31]; in assay [14]; in assay [32]) was 90% each time.
In the case of `CNC(=O)/C(=N/OC)c1ccccc1COc1ccc(C(F)(F)F)c(Cl)n1`, the Activity (in assay [24]; with Podosphaera fuliginea [17]; in the assay on Podosphaera fuliginea [33]; in the assay on Pyricularia oryzae [27]; in the assay on Pyricularia oryzae [28]; in assay [19]) was 90% throughout. The Activity (in the assay on Botrytis cinerea [34]; in assay [31]; in assay [14]; in the assay on Botrytis cinerea [22]) was 90% throughout.
In the case of `CNC(=O)/C(=N/OC)c1ccccc1COc1nc(Cl)c(C(F)(F)F)cc1Cl`, the Activity (in [24]; in the assay on Podosphaera fuliginea [25]; with Podosphaera fuliginea [17]; in the assay on Botrytis cinerea [11]; in the assay on Pyricularia oryzae [30]; in assay [5]) was 90% throughout. Further, the Activity (in the assay on Pyricularia oryzae [35]; in [18]; in assay [14]; in the assay on Botrytis cinerea [22]) was 90% in each case.
`CNC(=O)/C(=N/OC)c1ccccc1COc1cccc(OC(C)C)n1`: the Activity with Botrytis cinerea [4] is <90%; in the assay with Pyricularia oryzae [30] it was 90%; in assay [5], <90%; with Pyricularia oryzae [35] it was 90%; in the assay with Podosphaera fuliginea [33], 90%; in [6], 90%. Besides, the Activity (in [8]; with Botrytis cinerea [10]; in assay [36]; in the assay on Podosphaera fuliginea [15]) was 90% each time.
Take `CNC(=O)/C(=N\OC)c1ccccc1COc1cccc(C(F)(F)F)n1`: the Activity is on record as 90% in the assay with Podosphaera fuliginea [37]; <90% with Botrytis cinerea [4]; 90% in the assay with Pyricularia oryzae [30]; 90% in assay [5]; 90% with Pyricularia oryzae [35]; 90% in assay [38]. Moreover, the Activity (in assay [9]; in assay [13]; with Botrytis cinerea [10]; in the assay on Podosphaera fuliginea [15]) was 90% in each case.
For the compound `CNC(=O)/C(=N/OC)c1ccccc1COc1nc(OC)ccc1C(F)(F)F`, the Activity is recorded as 90% in the assay on Podosphaera fuliginea [25]; 90% in the assay with Pyricularia oryzae [2]; 90% with Podosphaera fuliginea [17]; 90% in the assay with Pyricularia oryzae [3]; <90% with Botrytis cinerea [4]; 90% in assay [5]. Further, the Activity (in assay [6]; in the assay on Botrytis cinerea [12]; in [38]; in [9]) was 90% each time.
Take `CNC(=O)/C(=N/OC)c1ccccc1COc1nc(Cl)ccc1C(F)(F)F`: the Activity (in [16]; in [24]; in the assay with Podosphaera fuliginea [25]; in the assay on Podosphaera fuliginea [17]; in the assay with Pyricularia oryzae [27]; with Pyricularia oryzae [28]) was 90% each time. For the same compound, the Activity (in assay [18]; in the assay with Botrytis cinerea [34]; in [32]; with Botrytis cinerea [22]) was 90% throughout.
Turning to `CNC(=O)/C(=N/OC)c1ccccc1COc1ccc(Cl)cn1`, the Activity (in the assay with Pyricularia oryzae [3]; in the assay with Botrytis cinerea [26]; in the assay with Pyricularia oryzae [30]; in the assay with Podosphaera fuliginea [33]; in assay [18]; in [19]) was 90% each time. For the same compound, the Activity (in assay [38]; with Botrytis cinerea [21]; in assay [14]; in the assay with Podosphaera fuliginea [15]) was 90% in each case.
With `CNC(=O)/C(=N/OC)c1ccccc1COc1cccc(OC)n1`, the Activity (in assay [24]; in the assay with Podosphaera fuliginea [1]; in the assay on Botrytis cinerea [4]; in the assay with Pyricularia oryzae [30]; in [5]; in the assay with Pyricularia oryzae [35]) was 90% each time. The Activity (in the assay with Podosphaera fuliginea [7]; in assay [8]; in assay [9]; in assay [31]; in the assay with Botrytis cinerea [10]) was 90% each time.
In the case of `CNC(=O)/C(=N/OC)c1ccccc1COc1ncc(Cl)cc1C(F)(F)F`, the Activity (in [16]; in assay [24]; in the assay on Podosphaera fuliginea [25]; with Podosphaera fuliginea [17]; in the assay on Pyricularia oryzae [27]; with Pyricularia oryzae [28]) was 90% throughout. The Activity (in assay [29]; in assay [18]; in the assay on Botrytis cinerea [21]; in the assay on Botrytis cinerea [22]) was 90% each time.
